Tests used:
[1] = 30 mg/kg, mouse CIA experiment; cited from earlier work
[2] = target: T1, human androgen receptor (AR) (Homo sapiens, UniProt P10275); assay: CHO steroid receptor reporter assay, AR / MMTV-Luc; format: cell-based
T1 construct: expressed in transfected cells; host or cells: CHO K1
T1 sequence (P10275 1-920): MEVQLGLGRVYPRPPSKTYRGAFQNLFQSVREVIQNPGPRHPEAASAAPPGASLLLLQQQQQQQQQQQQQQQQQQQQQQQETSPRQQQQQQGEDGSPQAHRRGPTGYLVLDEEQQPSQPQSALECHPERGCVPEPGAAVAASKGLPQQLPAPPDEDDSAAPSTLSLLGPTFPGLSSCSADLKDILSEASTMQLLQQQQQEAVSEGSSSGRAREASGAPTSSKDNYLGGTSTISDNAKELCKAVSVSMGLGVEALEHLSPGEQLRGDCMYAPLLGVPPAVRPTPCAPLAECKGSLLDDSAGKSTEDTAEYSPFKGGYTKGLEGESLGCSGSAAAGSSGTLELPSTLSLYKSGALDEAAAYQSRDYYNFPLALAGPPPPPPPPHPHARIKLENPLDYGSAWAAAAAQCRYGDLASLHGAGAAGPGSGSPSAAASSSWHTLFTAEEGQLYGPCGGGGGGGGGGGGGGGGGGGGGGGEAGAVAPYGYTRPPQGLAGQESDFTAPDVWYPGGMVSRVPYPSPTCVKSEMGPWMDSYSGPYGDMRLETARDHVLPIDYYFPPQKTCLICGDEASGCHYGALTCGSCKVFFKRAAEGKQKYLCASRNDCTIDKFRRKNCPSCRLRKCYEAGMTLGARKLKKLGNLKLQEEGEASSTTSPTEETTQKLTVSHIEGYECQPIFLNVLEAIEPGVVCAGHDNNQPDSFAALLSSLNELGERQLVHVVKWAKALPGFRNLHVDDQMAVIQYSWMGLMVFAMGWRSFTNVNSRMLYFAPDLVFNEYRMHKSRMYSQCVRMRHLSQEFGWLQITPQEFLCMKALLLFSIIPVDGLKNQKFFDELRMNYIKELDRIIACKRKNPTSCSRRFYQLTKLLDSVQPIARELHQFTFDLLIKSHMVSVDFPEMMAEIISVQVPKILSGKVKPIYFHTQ
Text: (§1) For monitoring both human steroid receptor agonistic as well as antagonistic activity of compounds, Chinese hamster ovary (CHO) K1 cells stably co-transfected with the specific human steroid receptor and its respective reporter construct were used (as previously described).
(§2) For human glucocorticoid receptor (GR)-specific activity CHO-GR B4.8 cells containing both recombinant human GR as well as a reporter construct consisting of the mouse mammary tumor virus (MMTV) promotor and the luciferase reporter gene, were used. Compound was incubated alone (in the agonistic setup) or with 50 nM dexamethasone (in the antagonistic setup) overnight. Hereafter, 200 µl medium was removed and 50 µl luciferine substrate solution from the LucLite luminescence kit (Packard, Meriden, USA) was added. […] Percentage maximal antagonistic efficacy was related to the maximal antagonistic efficacy of reference GR antagonist Org 34116. Similar procedures were followed for the other human steroid receptor assays (for more detailed information see Supportive Information) (SI text).
(§3) Similar procedures were followed for the other human steroid receptor assays containing combinations of human progesterone receptor B (PR-B) and MMTV-Luc, human androgen receptor (AR) and MMTV-Luc, human chimeric glucocorticoid-mineralocorticoid receptor (GGM, Trapp et al. (1994), Neuron 13: 1457) and MMTV-Luc, human estrogen receptor alpha (ERα) and rat oxytocin-Luc (45), and human estrogen receptor beta (ERβ) and rat oxytocin-Luc, respectively.

[3] = target: T2, human chimeric glucocorticoid-mineralocorticoid receptor (GGM) (Homo sapiens, UniProt P04150+P08235, G607S/G671E/L660Y/Q661R/V618L); assay: CHO steroid receptor reporter assay, MR (GGM) / MMTV-Luc; format: cell-based
T2 construct: glucocorticoid receptor part of the chimera (human NR3C1, P04150); expressed in transfected cells; host or cells: CHO K1
T2 sequence (P04150+P08235 with tags, fused parts or gaps P08235:G607S/P08235:V618L/P08235:L660Y/P08235:Q661R/P08235:G671E): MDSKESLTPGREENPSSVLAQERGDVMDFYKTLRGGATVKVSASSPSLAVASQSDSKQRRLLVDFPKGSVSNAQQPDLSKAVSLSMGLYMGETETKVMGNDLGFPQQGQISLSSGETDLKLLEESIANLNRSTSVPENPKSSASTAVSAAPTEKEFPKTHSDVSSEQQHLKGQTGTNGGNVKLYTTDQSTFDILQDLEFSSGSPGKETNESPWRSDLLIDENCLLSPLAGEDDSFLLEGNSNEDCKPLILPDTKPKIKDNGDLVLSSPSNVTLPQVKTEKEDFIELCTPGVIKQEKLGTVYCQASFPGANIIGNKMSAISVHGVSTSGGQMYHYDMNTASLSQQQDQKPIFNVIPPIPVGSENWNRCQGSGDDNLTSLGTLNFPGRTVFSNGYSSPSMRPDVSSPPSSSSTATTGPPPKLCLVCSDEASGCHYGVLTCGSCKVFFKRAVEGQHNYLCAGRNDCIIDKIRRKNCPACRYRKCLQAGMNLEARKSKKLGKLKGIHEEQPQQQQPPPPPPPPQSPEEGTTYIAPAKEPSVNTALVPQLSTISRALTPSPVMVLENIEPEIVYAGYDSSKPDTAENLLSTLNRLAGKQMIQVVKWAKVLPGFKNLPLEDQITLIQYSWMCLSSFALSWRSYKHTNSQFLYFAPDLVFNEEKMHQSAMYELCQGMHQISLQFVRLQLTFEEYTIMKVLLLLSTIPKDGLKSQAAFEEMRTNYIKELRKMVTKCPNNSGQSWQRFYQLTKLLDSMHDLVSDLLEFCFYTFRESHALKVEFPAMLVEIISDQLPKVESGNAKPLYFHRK
Text: as §1, §2, §3

Row | EC50 ([2]; read-out: EC50 (agonist)) [nM] | IC50 ([2]; read-out: IC50 (antagonist)) [nM] | % agonist potency ([2]; relative to reference compound) [%] | % antagonist potency ([2]; relative to reference compound) [%] | Emax ([3]; read-out: % efficacy (antagonist)) [%] | EC50 ([3]; read-out: EC50 (agonist)) [nM] | IC50 ([3]; read-out: IC50 (antagonist)) [nM] | % agonist potency ([3]; relative to reference compound) [%] | % antagonist potency ([3]; relative to reference compound) [%] | SMILES | serum insulin levels [1]
1 |  |  |  |  |  |  |  |  |  | C[C@]12C=CC(=O)C=C1CC[C@@H]1[C@@H]2[C@@H](O)C[C@@]2(C)[C@H]1CC[C@]2(O)C(=O)CO [prednisolone, reference compound] | significantly elevated
2 | > 100 | > 1000 | <0.13 | <3.83 | > 40 | > 1000 | > 1260 | <0.1 | <1.27 | Cc1nnsc1C(=O)N[C@H]1CCN2c3ccc(C#N)cc3[C@@H](C)c3ccccc3[C@@H]2C1 [Org 214007-0] | 

From PMC3495945, “Org 214007-0: A Novel Non-Steroidal Selective Glucocorticoid Receptor Modulator with Full Anti-Inflammatory Properties and Improved Therapeutic Index” (PLoS ONE, 2012)
